From paper PMC6934184, “Selective DNA-PKcs inhibition extends the therapeutic index of localized radiotherapy and chemotherapy” (The Journal of Clinical Investigation, 2019)

Biological target: T1, FLT3 D835Y (Homo sapiens, UniProt P36888, D835Y)
T1 construct: purchased Thermo Fisher Scientific (Life Technologies) SelectScreen
Test: SelectScreen Z'LYTE
Format: biochemical
How it was run: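 Compound tested in SelectScreen activity assays, Z'LYTE for CSF1R, CDK1/cyclin B and MAP2K6 and Adapta for CAMK1. ATP for CAMK1 was listed as 10, and Km app was used for CSF1R. Results are expressed in percent.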

CN(C(=O)CN1CCOCC1)c1ccc2sc3c(-c4cccc5c(=O)cc(N6CC7CCC(C6)O7)oc45)cccc3c2c1 [NU5455] was tested, and the inhibition at 1 µM was -3.9%.
